Assay results from US12264185B2, “Stabilized BCL9 peptides for treatment of aberrant Wnt signaling” (WntRx Pharmaceuticals Inc., priority 2015, dated 2025).
Where “and” joins values, the source holds several entries; their conditions need not be identical. Identical values can stand only once. Like-named read-outs stand apart in the source and are kept apart here.

Columns and labels:
[1] = Preliminary solubility study; format: physicochemical; conditions: water, DMSO, and PBS
[2] = test system: B16F10 cells; test: B16F10 syngeneic model in C57BL/6 mice; format: in vivo
Description: C57BL/6 mice were inoculated with B16F10 cells. Female C57BL/6 mice aged 4-5 weeks were inoculated with B16F10 cells (2×10^5 cells in 0.05 ml per mouse) in the right flank. When the average tumor size of the mice reached 100 mm^3, the mice were divided into two groups (N=6). […] The treatment was intraperitoneally administered daily for 14 consecutive days.
The treatment was intraperitoneally administered daily for 12 consecutive days. At the end of the treatment, the mice were sacrificed and tumor and blood samples were collected in anticoagulation tubes. Single cell separation was performed for each sample and then stained for FACS analysis. For cell surface staining, CD45-PerCP-Cy5, CD4-FITC, CD8-PE-Cy7, and CD25-PE were used. The tumor samples were then stained with either an anti-CD4 antibody or an anti-CD8 antibody to assess the presence of T cells in the tumor samples. The tumor samples were also stained with an anti-CD194 antibody and anti-CD196 antibody to assess the presence of T helper 17 cells in the tumor samples.
The process of constructing WX-039 is described in Example 10. C57BL/6 mice were inoculated with B16F10 cells. […] The treatment was intraperitoneally administered daily for 12 consecutive days. At the end of the treatment, the mice were sacrificed and tumor and blood samples were collected in anticoagulation tubes. Tumor cells collected from the experiment were stained as described above and also with anti-CD205 antibody to assess whether WX compounds are capable of modulating dendritic cells.
The ability of WX-039 to suppress tumor growth was assessed in the animal model described in Example 5.4. Briefly, C57BL/6 mice were inoculated with B16 cells. Female C57BL/6 mice aged 5 weeks were inoculated with B16F10 cells (2×10^5 cells in 0.05 ml per mouse) in the right flank. When the average tumor size of the mice reached 100 mm^3, the mice were divided into two groups (N=3). The first group was administered 60 mg/kg WX-039 while the second group was treated with a vehicle. The treatment was intraperitoneally administered daily for 12 consecutive days.

[3] = Preclinical summary of multiple animal models; format: in vivo
Description: The in vivo efficacy of WX-024 was confirmed in multiple animal models.

[4] = Pharmacokinetics in male ICR mice; conditions: mouse, plasma, 5 mg/kg
Description: The tail vein was used for i.v. injections. […] Following injections, blood samples were obtained via the retro-orbital vein at 5 min, 1, 2, 4, 6, 8, 12, and 24 hours postdose. Plasma was obtained from the blood samples following mixing with sodium heparin and centrifugation.
LC analysis was done using an Agilent 100 HPLC. MS analysis was done using an AB Sciex API 4000. Calibration standards were prepared by serial dilution.
The maximum observed concentration (Cmax), terminal half-life (T1/2), total body clearance (CL), volume of distribution (Vz), area under the curve from the time of dosing to the last measurable concentration (AUC0-t), area under the curve from the time of dosing extrapolated to infinity (AUC0-inf), and bioavailability were calculated using noncompartmental analysis modules in the FDA-certified pharmacokinetic program WinNonlin Professional v5.2 (Pharsight).
Briefly, the mice were administered 1 mg/kg or 5 mg/kg intravenously, or 5 mg/kg intraperitoneally. Blood samples were collected at 15 min, 1, 2, 3, 6, 8, 12, and 24 hours post administration.

[5] = Toxicokinetics, 14 days i.p., female balb/c mice; conditions: for half-life: female, balb/c, mouse, plasma, ip
[6] = test system: Wnt/β-catenin signaling; test: GeneBLAzer beta-lactamase Wnt transcription reporter assay, LEF/TCF-bla HCT-116 cells; format: cell-based
Description: ICG001 was used as a comparison. The GeneBLAzer uses CellSensor™ LEF/TCF-bla HCT-116 cells that contain a beta-lactamase (BLA) reporter gene under the control of the β-catenin/LEF/TCF response element stably integrated into HCT-116 cells, as shown in FIG. 5A. These cells constitutively express beta-lactamase and can be used to detect agonists and antagonists of the Wnt/β-catenin signaling pathway. The GeneBLAzer assay provides a ratiometric reporter response involving a two-color (blue/green) readout of stimulated and unstimulated cells.
LEF/TCF-bla HCT-116 cells were plated in assay medium (Invitrogen) on clear-bottom plates and incubated overnight at 37° C. […] Cells were next incubated with the Wnt agonist, mWnt3a (provided in the GeneBLAzer kit) for 5 hours at 37° C. Substrate mixture (containing LiveBLAzer™ B/G substrate that employs CCF4-AM, a FRET substrate for beta-lactamase) was added to the wells, and the plate was incubated for 2.5 hours at room temperature in the dark. Black-walled, clear-bottom, 384-well plates (Corning Costar) were used with scanning done with a Spectramax M2. Plates were scanned first (Scan 1 in the blue channel) with excitation filter 409/20 nm and emission filter 460/40 nm. Plates were then scanned (Scan 2 in the green channel) with excitation filer 409/20 nm and emission filter 530/30 nm.

[7] = test system: PI3K/AKT/FOXO; test: PI3K/AKT/FOXO transcription assay (TREx FOXO3-DBE-bla HeLa cell line); format: cell-based
Description: (§1) In these assays, the trifluoroacetic salt form of WX-024 was used.

[8] = test system: TNF-alpha/JNK; test: TNF-alpha/JNK transcription assay (AP1-bla ME-180 cell line); format: cell-based
Description: as §1

[9] = test system: TGF-beta; test: TGF-beta transcription assay (SBE-bla HEK 293T cell line); format: cell-based
Description: as §1

[10] = Toxicology study, 14 days i.v., female balb/c mice; format: in vivo
Description: At the end of the study, the mice were sacrificed and various major organs were collected. The tissue samples were treated and processed as described in Example 5.5. […] The body weight of each moue was monitored throughout the study and the average body weight of each treatment group is shown in FIG. 30B. […] At the end of the study, blood from each mouse was also collected for serum chemistry and hematological analysis (complete blood cell count analysis).

[11] = 20 mg/kg WX-024 or 60 mg/kg WX-039 i.p. daily, 12 days
[12] = IP-10 mg/kg, after the first dosing (day 1)
[13] = IP-15 mg/kg, after the first dosing (day 1)
[14] = IP-20 mg/kg, after the first dosing (day 1)

**Q.** What does the source list for `CC[C@H](C)[C@@H]1NC(=O)[C@@](C)(NC(=O)[C@H](CCCNC(=N)N)NC(=O)[C@H](CC(C)C)NC(=O)[C@@H](NC(=O)[C@H](CCC(N)=O)NC(=O)[C@H](CC(C)C)NC(C)=O)[C@@H](C)O)CCCC=CCCC[C@@](C)(C(=O)N[C@@H](CC(C)C)C(=O)N[C@@H](Cc2ccc3ccccc3c2)C(N)=O)NC(=O)[C@H](CCCNC(=N)N)NC(=O)[C@H](CCC(N)=O)NC1=O` [WX-024, LQTLRXaa1IQRXaa2L]?
**A.** solubility [1]: ≥ 1 mg/mL; T helper 17 cells in tumor [2, 11]: more effective than WX-039; dendritic cells (CD205+) in tumor [2, 11]: significantly reduced; CD4+ positive cells in tumor samples ([2]; 25 mg/kg i.p. daily, 12 days): increased; CD8+ positive cells in tumor samples ([2]; 25 mg/kg i.p. daily, 12 days): increased; tumor growth compared to vehicle ([2]; 25 mg/kg i.p. daily, 14 days): effectively reduced tumor growth; drug-related toxicity ([3]; animals chronically dosed): no particular drug-related toxicity was observed; average tumor growth inhibition rate ([3]; multiple animal models, administered for 3-6 weeks): 70-80%; bioavailability ([4]; ip): 73.6%; Cmax ([4]; iv): 47400 ng/mL and > 30 µM; AUCINF [5, 12]: 117 µg·h/mL; AUClast [5, 12]: 114333 ng·h/mL; Cmax [5, 12]: 11.39 µg/mL; Terminal t1/2 [5, 12]: 4.52 h; Tmax [5, 12]: 1.50 h; Cmax ([5]; IP-10 mg/kg, after the last dosing (day 14)): 11.36 µg/mL; AUCINF [5, 13]: 129.1 µg·h/mL; AUClast [5, 13]: 118,033 hr*ng/mL; Cmax [5, 13]: 9.767 µg/mL; Terminal t1/2 [5, 13]: 7.59 h; AUCINF [5, 14]: 175.333 µg·h/mL; AUClast [5, 14]: 162,333 hr*ng/mL; Cmax [5, 14]: 12.733 µg/mL; Terminal t1/2 [5, 14]: 6.47 h; Tmax [5, 14]: 2.67 h; half-life ([5]; 10 mg/kg): 6.97 h; half-life ([5]; 15 mg/kg): 4.25 h; half-life ([5]; 20 mg/kg): 4.55 h; IC50 ([6]; LEF/TCF-bla HCT-116 cells, read-out: IC50, Wnt transcription): 0.191 µM and ~0.2 µM; IC50 ([6]; acetate salt form, read-out: IC50, Wnt transcription inhibition): 0.292 µM; IC50 ([6]; hydrochloric salt, read-out: IC50, Wnt transcription inhibition): 0.313 µM; IC50 ([7]; Example 4.5, read-out: IC50, PI3K/AKT/FOXO transcription assay): > 10000 nM; IC50 ([7]; TREx FOXO3-DBE-bla HeLa, Insulin stimulation, trifluoroacetic salt form, read-out: IC50 (nM), PI3K/AKT/FOXO3 pathway): > 1000 nM; IC50 ([7]; summary, Example 6, read-out: IC50, PI3K/AKT/FOXO3 reporter assay): > 100 nM; IC50 ([8]; AP1-bla ME-180, TNF-alpha stimulation, trifluoroacetic salt form, read-out: IC50 (nM), TNP-alpha/JNK pathway): > 1000 nM; IC50 ([8]; Example 4.5, read-out: IC50, TNF-alpha/JNK transcription assay): > 10000 nM; IC50 ([8]; summary, Example 6, read-out: IC50, TNF-α/JNK reporter assay): > 100 nM; IC50 ([9]; Example 4.5, read-out: IC50, TGF-beta transcription assay): > 10000 nM; IC50 ([9]; SBE-bla HEK 293T, TGF-beta 1 stimulation, trifluoroacetic salt form, read-out: IC50 (nM), TGF-beta pathway): > 3160 nM; IC50 ([9]; summary, Example 6, read-out: IC50, TGF-0 reporter assay): > 100 nM; blood cell count profile vs vehicle ([10]; 20 mg/kg i.v. daily): did not differ significantly; average body weight ([10]; 10, 15 or 20 mg/kg i.v. daily): stabilized and was maintained throughout the study; food consumption ([10]; 10, 15 or 20 mg/kg i.v. daily): recovered to near baseline levels with continued treatment
